Laboratory results: patent US8058243B2, “Method for treating a brain cancer with ifenprodil” (HSC Research and Development Limited Partnership, priority 2006, dated 2011)
Where a name gives a salt, the structure may show the parent alone. Read-outs that look alike come from different tables or passages of the source.

System: murine neural precursor cells (neurosphere cultures)
Test: HTS of LOPAC library against secondary neurosphere cultures, MTT proliferation assay at 3 μM, day 7 (z score, P value)
Type: cell-based, mouse
[1] = LOPAC primary screen, neurosphere MTT proliferation, 3 μM, day 7
[2] = yes = significantly inhibited neurosphere proliferation (P<0.01) in the primary screen
[3] = LOPAC library screen, 3 μM, MTT, secondary neurosphere cultures, day 7
[4] = yes/no: significantly inhibited neurosphere proliferation (P<0.01) in the primary screen
[5] = LOPAC library screen, 3 μM, MTT, neurosphere cultures
[6] = yes/no: significantly inhibited neurosphere proliferation in primary screen
[7] = LOPAC library screen at 3 μM, secondary neurosphere cultures, MTT

O=C(Nc1cccc(C(=O)Nc2ccc(S(=O)(=O)[O-])c3cc(S(=O)(=O)[O-])cc(S(=O)(=O)[O-])c23)c1)Nc1cccc(C(=O)Nc2ccc(S(=O)(=O)[O-])c3cc(S(=O)(=O)[O-])cc(S(=O)(=O)[O-])c23)c1.[Na+].[Na+].[Na+].[Na+].[Na+].[Na+] [NF 023]
Z Score: 1.115 | Z score [1]: 1.115 | Activity [2]: no

CC(=O)O.NC(=NCCC[C@H](N)C(=O)O)NO [NG-Hydroxy-L-arginine acetate]
Z Score [3]: −10.96 | Z score [1]: −10.958 | Activity [4]: yes

CC(=O)O.CNC(=N)NCCC[C@H](N)C(=O)O [NG-Monomethyl-L-arginine acetate]
Z Score [3]: −1.386 | Z score [1]: −1.386 | Activity [2]: no

N=C(NCCC[C@H](N)C(=O)O)N[N+](=O)[O-] [NG-Nitro-L-arginine]
Z Score [5]: 0.1385 | Z score [1]: 0.139 | Activity [2]: no

Cl.O=C(O)C1=CCCN(CCON=C(c2ccccc2)c2ccccc2)C1 [NO-711 hydrochloride]
Z Score: −0.4618 | Z score [1]: −0.462 | Activity [2]: no

O=c1onc2n1-c1cc(Br)ccc1OC2 [NS 2028]
Z Score: −2.684 | Z score [1]: −2.684 | Activity [2]: yes

O=c1[nH]c2cc(C(F)(F)F)ccc2n1-c1cc(C(F)(F)F)ccc1O [NS-1619]
Z Score: −0.4878 | Z score [1]: −0.488 | Activity [6]: no

COc1ccccc1N1CCN(CC(O)COc2cccc3ccccc23)CC1 (stereo not shown) [Naftopidil dihydrochloride]
Z Score [7]: −0.1172 | Z score [1]: −0.117 | Activity [6]: no

Oc1ccc2c3c1O[C@H]1[C@@H](O)CC[C@@]4(O)[C@@H](C2)N(CC2CCC2)CC[C@]314 [Nalbuphine hydrochloride]
Activity: no | Z Score: 0.07032 | Z score: 0.070

CCn1cc(C(=O)O)c(=O)c2ccc(C)nc21 [Nalidixic acid sodium]
Z Score: −0.3145 | Z score [1]: −0.314 | Activity [2]: no

C=CCN1CC[C@]23c4c5ccc(O)c4O[C@H]2/C(=N/N=C2\CC[C@@]4(O)[C@H]6Cc7ccc(O)c8c7[C@@]4(CCN6CC=C)[C@H]2O8)CC[C@@]3(O)[C@H]1C5 [Naloxonazine dihydrochloride]
Z Score: −0.6061 | Z score [1]: −0.606 | Activity [4]: no

C=CCN1CC[C@]23c4c5ccc(O)c4O[C@H]2/C(=N/NC(=O)c2ccccc2)CC[C@@]3(O)[C@H]1C5 [Naloxone benzoylhydrazone]
Z Score: 1.915 | Z score [1]: 1.915 | Activity [4]: no

C=CCN1CC[C@]23c4c5ccc(O)c4O[C@H]2C(=O)CC[C@@]3(O)[C@H]1C5 [Naloxone hydrochloride]
Z Score [3]: −10.14 | Z score [1]: −10.137 | Activity [4]: yes

O=C1CC[C@@]2(O)[C@H]3Cc4ccc(O)c5c4[C@@]2(CCN3CC2CC2)[C@H]1O5 [Naltrexone hydrochloride]
Z Score [5]: 0.3891 | Z score [1]: 0.389 | Activity [4]: no

Oc1ccc2c3c1O[C@H]1c4oc5ccccc5c4C[C@@]4(O)[C@@H](C2)N(CC2CC2)CC[C@]314 [Naltriben methanesulfonate]
Z Score: −0.3606 | Z score [1]: −0.361 | Activity [6]: no

Oc1ccc2c3c1O[C@H]1c4[nH]c5ccccc5c4C[C@@]4(O)[C@@H](C2)N(CC2CC2)CC[C@]314 [Naltrindole hydrochloride]
Z Score: −0.314 | Z score [1]: −0.314 | Activity [2]: no

c1ccc2c(CC3=NCCN3)cccc2c1 [Naphazoline hydrochloride]
Z Score [3]: −1.724 | Z score [1]: −1.724 | Activity [2]: no

CN(C)C(=O)Oc1cccc([N+](C)(C)C)c1 [Neostigmine bromide]
Z Score: 1.228 | Z score [1]: 1.228 | Activity [2]: no

O=C(CCNNC(=O)c1ccncc1)NCc1ccccc1 [Nialamide]
Z Score [5]: −0.02937 | Z score [1]: −0.029 | Activity [2]: no

COC(=O)C1=C(C)NC(C)=C(C(=O)OCCN(C)Cc2ccccc2)C1c1cccc([N+](=O)[O-])c1 (stereo not shown) [Nicardipine hydrochloride]
Z Score (LOPAC library screen at 3 μM, MTT, secondary neurosphere cultures, screened in singlets): 1.869 | Z score [1]: 1.869 | Activity [2]: no

O=C(Nc1ccc([N+](=O)[O-])cc1Cl)c1cc(Cl)ccc1O [Niclosamide]
Z Score [3]: −2.784 | Z score [1]: −2.784 | Activity [4]: yes

COC(=O)C1=C(C)NC(C)=C(C(=O)OC)C1c1ccccc1[N+](=O)[O-] [Nifedipine]
Z Score (168 h, 3 µM): −0.2937 | Z score (168 h, 3 µM): −0.294

O=C(O)c1cccnc1Nc1cccc(C(F)(F)F)c1 [Niflumic acid]
Z Score [3]: −1.958 | Z score [1]: −1.958 | Activity [2]: no

CC1(C)NC(=O)N(c2ccc([N+](=O)[O-])c(C(F)(F)F)c2)C1=O [Nilutamide]
Z Score [5]: 0.1188 | Z score [1]: 0.119 | Activity [2]: no

CS(=O)(=O)Nc1ccc([N+](=O)[O-])cc1Oc1ccccc1 [Nimesulide]
Activity: yes | Z Score [3]: −2.395 | Z score [1]: −2.395

COCCOC(=O)C1=C(C)NC(C)=C(C(=O)OC(C)C)C1c1cccc([N+](=O)[O-])c1 (stereo not shown) [Nimodipine]
Z Score [7]: −0.8542 | Z score [1]: −0.854

Cc1ncc(CNC(=O)N(CCCl)N=O)c(N)n1.Cl [Nimsutine hydrochloride]
Z score [1]: −0.652 | Activity [2]: no

Cc1ncc(CNC(=O)N(CCCl)N=O)c(N)n1 [Nimustine hydrochloride]
Z Score: −0.6524

CNCCC(Oc1ccccc1OC)c1ccccc1 (stereo not shown) [Nisoxetine hydrochloride]
Z Score: 0.8336 | Z score: 0.834

CCOC(=O)C1=C(C)NC(C)=C(C(=O)OC)C1c1cccc([N+](=O)[O-])c1 (stereo not shown) [Nitrendipine]
Z Score [3]: −1.61 | Z score [1]: −1.610

COC(=O)Nc1nc2ccc(C(=O)c3cccs3)cc2[nH]1 [Nocodazole]
Z Score [7]: −0.1891 | Z score [1]: −0.189 | Activity [2]: no

CN1Cc2c(N)cccc2C(c2ccccc2)C1 (stereo not shown) [Nomifensine maleate]
Z Score [5]: 0.6693 | Z score [1]: 0.669 | Activity [2]: no

O=C1OC(=O)[C@H]2[C@@H]1[C@@H]1CC[C@H]2O1 [Norcantharidin]
Z Score: −1.251 | Z score [1]: −1.251 | Activity [2]: no

CNCCC=C1c2ccccc2CCc2ccccc21 [Nortriptyline hydrochloride]
Z Score [7]: −1.095 | Z score [1]: −1.095 | Activity [2]: no

COc1ccc2c(c1OC)C(=O)O[C@@H]2[C@H]1c2c(cc3c(c2OC)OCO3)CCN1C.Cl [Noscapine hydrchloride]
Z Score [3]: −2.455 | Z score [1]: −2.455 | Activity [4]: yes

CC(CCc1ccccc1)NC(C)C(O)c1ccc(O)cc1 (stereo not shown) [Nylidrin hydrochloride]
Z Score [3]: −1.375 | Z score [1]: −1.375 | Activity [2]: no

CN(C)C(=N)NCCC[C@H](N)C(=O)O.Cl [N′,N′-Dimethylarginine hydrochloride]
Z score (LOPAC screen, neurosphere MTT proliferation, 3 μM, day 7): −1.373 | Activity (yes/no: significantly inhibited neurosphere proliferation (P<0.01) in primary screen): no

Nc1nc(OCc2ccccc2)c2nc[nH]c2n1 [O6-benzylguanine]
Z Score [7]: −1.177 | Z score (primary LOPAC screen, 3 μM, MTT, neurosphere proliferation): −1.177 | Activity (yes/no: significantly inhibited neurosphere proliferation in the primary screen): no

COc1ccc2[nH]cc(CCN)c2c1.Cl [O-Methylserotonin hydrochloride]
Z Score: −0.172 | Z score [1]: −0.172 | Activity [2]: no

N[C@@H](COP(=O)(O)O)C(=O)O [O-Phospho-L-serine]
Z Score [5]: 0.5472 | Z score [1]: 0.547 | Activity [6]: no

O=c1onc2cnc3ccccc3n12 [ODQ]
Z Score: −0.5922 | Z score [1]: −0.592 | Activity [6]: no

C[C@@H]1O[C@H](C[N+](C)(C)C)CS1.[I-] [OXA-22 iodide]
Activity: no | Z Score: −1.666 | Z score: −1.666

CC1COc2c(N3CCN(C)CC3)c(F)cc3c(=O)c(C(=O)O)cn1c23 (stereo not shown) [Ofloxacin]
Z Score [7]: −0.4889 | Z score [1]: −0.489

CCCCCCCC/C=C\CCCCCCCC(=O)O [Oleic Acid]
Z Score [7]: −0.3449

CCCCCCCC/C=C\CCCCCCCC(=O)O [Oleic acid]
Z score [1]: −0.345 | Activity [4]: no

CC[C@@H]1/C=C/C=C/C[C@H](C)[C@H](O)[C@](C)(O)C(=O)[C@H](C)[C@@H](O)[C@H](C)C(=O)[C@H](C)[C@@H](O)[C@H](C)/C=C/C(=O)O[C@H]2[C@@H](C)[C@@H](CC1)O[C@@]1(CC[C@@H](C)[C@@H](C[C@H](C)O)O1)[C@@H]2C [Oligomycin A]
Z Score [3]: −9.731 | Z score [1]: −9.731 | Activity [2]: yes

Cn1cnc2c(NCc3ccccc3)nc(NCCO)nc21 [Olomoucine]
Z Score (168 h, 3 µM): 1.553 | Z score (168 h, 3 µM): 1.553

Cc1ccccc1C(OCCN(C)C)c1ccccc1 (stereo not shown) [Orphenadrine hydrochloride]
Z Score [5]: 0.4548 | Z score [1]: 0.455

C[C@@H]1O[C@@H](O[C@H]2C[C@@H](O)[C@]3(CO)[C@H]4[C@H](O)C[C@]5(C)[C@@H](C6=CC(=O)OC6)CC[C@]5(O)[C@@H]4CC[C@]3(O)C2)[C@H](O)[C@H](O)[C@H]1O [Ouabain]
Z Score [3]: −1.568 | Z score [1]: −1.568 | Activity [6]: no

O=C(O)CCc1nc(-c2ccccc2)c(-c2ccccc2)o1 [Oxaprozin]
Z Score [5]: 0.06616 | Z score [1]: 0.066 | Activity [6]: no

O=c1[nH]c2ccccc2n1CCCN1CCN(C(c2ccccc2)c2ccccc2)CC1 [Oxatomide]
Z Score [5]: 0.5957 | Z score [1]: 0.596 | Activity [6]: no

NC(=O)CN1CC(O)CC1=O (stereo not shown) [Oxiracetam]
Z Score [7]: −0.6131 | Z score [1]: −0.613 | Activity [6]: no
